Source: patent publication US7419999B2, “Gamma lactams as prostaglandin agonists and use thereof” (Applied Research Systems ARS Holding N.V., priority 2002, dated 2008)
Where two headings read alike, the source gives them in different places.

Legend:
h-EP4 [1] = molecular target: T1, h-EP4 (Homo sapiens, UniProt P35408); assay: EP4 receptor binding assay (3H-PGE2 SPA)
Experimental: Compounds of the invention were tested in an EP4 receptor binding assay of the following protocol.

h-EP4 [2] = molecular target: T1, h-EP4; assay: EP4 cAMP assay in HEK293-EBNA cells transfected with pCEP4-hEP4; type: cell-based
Experimental: Compounds of the invention were tested in a total cAMP assay as follows. […] After overnight incubation, the medium was removed from each well and replaced with 45 μl of assay medium consisted of phenol red free D-MEM/F-12, 0.1% BSA (GibcoBRL) and 0.1 mM3-isobutyl-1-methyl-xanthine (Sigma). […] Total cAMP (intra- and extra-cellular) was measured by using a cAMP-screen ELISA System (Tropix, #CS1000).

mature 10-week CD-1 mice = assay: In vivo ovulation assay (mature mouse ovulation induction model); conditions: for ED50: Mus musculus; for average of ova obtained: 5IU PMSG priming
Experimental: Ovulation triggering activity of compounds of the invention are tested in a mature mouse ovulation induction model.
Mature 10-week-old CD-mice are used. […] A test compound (based on solubility) is pre-dissolved in ethanol, DMSO or other reagents. Test compound is then diluted with saline or other diluents such as PBS or NP3S (5% N-methyl-pyrrolidinone/30% PEG-400/25% PEG-200/20% Propylene Glycol in saline). PMSG serves to stimulate follicule growth and maturation.
Uterus, oviducts and ovaries were collected and placed in pre-labeled dishes containing phosphate buffered saline (PBS). The collected tissues were transferred to the laboratory and intact oviduct carefully dissected out from uterus and ovary under the dissection microscope. The dissected oviducts were placed on the glass microscopic slide and covered with another slide. Two slides were taped on two edges. The numbers of ovulated ova in the oviducts were counted using upright microscope with 4× objective and recorded.
For evaluating the oral activity of this compound, two experiments were conducted, the first experiment was conducted with non-fasted animals and the second experiment was conducted in 24 h fasted animals (water provided). The compounds of the invention, according to their solubility are pre-dissolved in ethanol, DMSO or other reagents. The compounds of the invention are then diluted with saline or other diluents such as PBS or NP3S before oral administration.

TNFα = assay: In vivo inhibition of LPS-induced TNFa release in mice; conditions: oral; Inhibitory Dose at 50% of the maximum effect
Experimental: The anti-inflammatory activity of compounds of the invention may be assessed after a LPS challenge using the following protocol:
Eight weeks old C3H/HEN mice (IFFA-CREDO, L'arbresle, France) receive an oral treatment with compounds of the invention 6 different doses (0.001, 0.01, 0.1, 1 or 3 and 10 mg/kg in 0.5% CMC/0.25% tween-20). Six mice are used by group. Fifteen minutes later, endotoxins (O111:B4 Sigma, 0.3 mg/kg) are intraperitoneally injected. Heparinized whole blood is collected by decapitation. TNFα level is determined in plasma by ELISA (R & D Systems, Abdingdon, UK). Control animals receive 0.5% CMC/0.25% tween-20 (10 ml/kg) as vehicle. Data obtained from experiments are expressed as the mean±SEM and analysed using one-way analysis of variance (ANOVA) followed by Dunnett's t-test.

h-EP2 = h-EP2 (Homo sapiens, UniProt P43116); assay: Prostaglandin EP2 receptor binding assay (3H-PGE2 SPA)
Experimental: Compounds of the invention were tested in an EP2 receptor binding assay of the following protocol. As referred to herein, the term an “EP2 receptor binding assay” designates the following protocol.

[3] = test system: methacholine-induced bronchoconstriction; assay: In vivo inhibition of guinea pig methacholine-induced bronchoconstriction; conditions: for ED50: Cavia porcellus
Experimental: Guinea pig pulmonary-cholinergic in vivo model is generally used to test the materials for the treatments of asthma in human (Fleisch at al. 1985, K. Pharmacol. Exp. Ther. 233: 148-157). Compounds of the invention are tested in this model.
Groups of 3 Duncan Hartley derived male or female guinea pigs weighing 250±50 g are anesthetized with pentobarbital sodium (50 mg/kg i.p., plus an additional 15 mg/kg i.p. if required) and succinylcholine chloride (2 mg/animal i.p.) is subsequently administered to prevent spontaneous respiration. Body temperature is maintained at 37° to 38° C.
The trachea is cannulated and the guinea pig is ventilated with a Harvard rodent respirator in a closed system. Tracheal pressure is recorded through a side-arm of the cannula connected to a P23ID Statham transducer. Respiratory rate is set at 50 strokes/minute with a stroke volume (approximately 1 ml/100 g) sufficient to produce a baseline tracheal pressure of 6 cm H2O. Mean arterial pressure (BP) is monitored from a cannulated carotid artery, and heart-rate (HR) is obtained from chest electrodes arranged for lead II. The jugular vein is cannulated for i.v. vehicle or drug administration in a volume of 1 ml/kg.
Cholinergic-induced bronchoconstrictor responses, reflected as increases in tracheal pressure (cm H2O), are elicited by administration of methacholine hydrochloride (10 μg/kg base weight i.v.). In vehicle-treated control animals, methacholine-induced bronchoconstriction ranges from 70 to 90 percent of its own maximum response (about 40 to 65 percent of maximum possible bronchoconstriction obtained by tracheal occlusion).
Compounds of the invention are also tested via intratracheal (IT) route of administration. In this other experiment, compound of the invention, reference compound or vehicle is administered IT 10 (5 min for experiment 1 and 2) minutes before methacholine chloride (10 μg/kg i.v.) induced bronchoconstriction. Tracheal pressure (ITP), blood pressure and heart rate are measured immediately as indicated in the material and methods sections.
MED (medium effective dose) is measured.
Compounds of the invention are administered i.v. (10 mg/kg) 5 minutes before subministration of the methacoline hydrochloride challenge in 3 guinea pigs. A 50 percent or more (≧50) inhibition of the induced bronchoconstriction relative to vehicle treated control animals is considered significant.

[4] = Table 2, total cAMP, read-out: h-EP4 EC50
[5] = po, Table 3, p.o., read-out: Ovulation Induction (ED50, mg/kg) p.o.
[6] = sc, Table 3, s.c., read-out: Ovulation Induction (ED50, mg/kg) s.c.
[7] = read-out: Ki measured as described in Example 83 (EP4)
[8] = sc, read-out: calculated ED50, ovulation induction

Sequence of h-EP2 (P43116 whole entry): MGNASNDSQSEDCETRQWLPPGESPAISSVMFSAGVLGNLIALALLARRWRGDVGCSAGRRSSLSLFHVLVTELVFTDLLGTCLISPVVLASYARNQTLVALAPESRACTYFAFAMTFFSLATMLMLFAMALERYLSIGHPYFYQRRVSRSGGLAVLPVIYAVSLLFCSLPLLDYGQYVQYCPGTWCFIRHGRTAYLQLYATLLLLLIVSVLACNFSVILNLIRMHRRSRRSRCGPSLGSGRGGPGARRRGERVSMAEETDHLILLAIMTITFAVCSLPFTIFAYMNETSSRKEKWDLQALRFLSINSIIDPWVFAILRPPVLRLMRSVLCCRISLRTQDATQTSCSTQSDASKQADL
T1 sequence (P35408 whole entry): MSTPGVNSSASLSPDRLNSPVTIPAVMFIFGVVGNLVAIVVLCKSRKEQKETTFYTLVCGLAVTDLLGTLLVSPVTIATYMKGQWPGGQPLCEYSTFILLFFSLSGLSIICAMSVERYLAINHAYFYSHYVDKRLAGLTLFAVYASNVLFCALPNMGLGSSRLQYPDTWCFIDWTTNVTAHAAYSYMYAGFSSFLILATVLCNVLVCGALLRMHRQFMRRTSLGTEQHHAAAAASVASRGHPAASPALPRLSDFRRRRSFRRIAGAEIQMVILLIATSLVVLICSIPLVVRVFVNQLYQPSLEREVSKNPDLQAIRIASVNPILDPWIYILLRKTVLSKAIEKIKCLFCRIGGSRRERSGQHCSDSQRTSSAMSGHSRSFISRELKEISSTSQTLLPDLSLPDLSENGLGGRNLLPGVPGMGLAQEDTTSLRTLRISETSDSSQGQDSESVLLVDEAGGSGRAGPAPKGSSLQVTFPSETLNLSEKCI

Ki (h-EP4 [1]; Table 2, read-out: h-EP4 Ki) [nM] | Ki (h-EP2; Table 1, read-out: h-EP2 Ki) [nM] | Ki (h-EP4 [1]; Table 1, read-out: h-EP4 Ki) [nM] | Structure (SMILES) | ED50 (mature 10-week CD-1 mice; [5]) [mg/kg] | ED50 (mature 10-week CD-1 mice; [6]) [mg/kg] | other results
7740 |  |  | CS(=O)(=O)NC(=O)CCC/C=C\C[C@H]1C(=O)C[C@@H](O)[C@@H]1/C=C/[C@@H](O)COc1ccccc1 [Sulprostone, reference compound] |  | > 27 | 
 | 2100 | 20 | CCCCC(C)(C)C(O)/C=C/[C@H]1CCC(=O)N1CCc1ccc(C(=O)O)cc1 (stereo in doubt) [Example 6, 4-(2-{2-[(1E,3R)-3-hydroxy-4,4-dimethyloct-1-enyl]-5-oxopyrrolidin-1-yl}ethyl)benzoic acid] |  |  | 
 | 1240 | 0.732 | CCCCC(C)(C)C(O)/C=C/[C@H]1CCC(=O)N1CCc1ccc(C(=O)O)cc1 (stereo in doubt) [Example 5, 4-(2-{2-[(1E,3S)-3-hydroxy-4,4-dimethyloct-1-enyl]-5-oxopyrrolidin-1-yl}ethyl)benzoic acid] | 18 | 3 | EC50 (h-EP4 [2]; [4]): 0.014 nM
1 |  |  | CCCCCC[C@H](O)/C=C/[C@H]1CCC(=O)N1CCc1ccc(C(=O)O)cc1 [Example 10, 4-(2-{(2R)-2-[(1E,3S)-3-hydroxynon-1-enyl]-5-oxopyrrolidin-1-yl}ethyl) benzoic acid] |  |  | 
 |  |  | O=C(O)c1ccc(CCN2C(=O)CCN2CCC(O)Cc2cccc(I)c2)cc1 (centres unmarked) [4-(2-{2-.[4-(3-iodophenyl)-3-hydroxybutyl]-5-oxopyrazolidin-1-yl}ethyl)benzoic acid, reference compound] |  |  | Ki (h-EP2; read-out: Ki on EP2): 4450 nM; Ki (h-EP4 [1]; [7]): 14 nM; release of ova (mature 10-week CD-1 mice; orally, single dose of 20 mg/kg): 10±3 ova
 | 1930 | 25 | O=C(O)c1ccc(CCN2C(=O)CC[C@@H]2/C=C/[C@H](O)C2(c3ccccc3)CC2)cc1 [Example 8, 4-(2-{(2R)-2-[(1E,3S)-3-hydroxy-3-(1-phenylcyclopropyl)prop-1-enyl]-5-oxopyrrolidin-1-yl}ethyl)benzoic acid] |  |  | 
 | 120 | 2 | CCCCC[C@H](O)/C=C/[C@H]1CCC(=O)N1CCc1ccc(C(=O)O)cc1 [Example 1, 4-(2-{(2R)-2-[(1E,3S)-3-hydroxyoct-1-enyl]-5-oxopyrrolidin-1-yl}ethyl) benzoic acid] | 22 | 3.8 | average of ova obtained (mature 10-week CD-1 mice; Group 4: 10 mg/kg s.c.): an average of 25 ova were obtained for Group 4;; average of ova obtained (mature 10-week CD-1 mice; Group 5: 30 mg/kg s.c.): an average of 22.4 ova were obtained for Group 5;; ED50 (mature 10-week CD-1 mice; [8]): 3.9 mg/kg; ED50 (mature 10-week CD-1 mice; oral, 24 h fasted animals, read-out: calculated ED50, ovulation induction): 21.1 mg/kg; ED50 (mature 10-week CD-1 mice; oral, non-fasted animals, read-out: calculated ED50, ovulation induction): 22 mg/kg; activity in the mice ovulation induction model (mature 10-week CD-1 mice; subcutaneous (sc), oral (po) and intravenous (iv) routes): active; ED50 ([3]; iv, read-out: calculated effective dose (ED50), bronchoconstriction): ~0.0017 mg/kg; ED50 ([3]; IT route of administration, read-out: calculated ED50, bronchoconstriction): 0.0024 mg/kg; calculated ED50, bronchoconstriction ([3]; IT route of administration): 0.72 μg/GP; effect on blood pressure and heart beat ([3]; i.v., 3 10^−5 up to 0.3 mg/kg): not altering neither blood pressure nor heart beat
2 | 220 | 16 | O=C(O)c1ccc(CCN2C(=O)CC[C@@H]2/C=C/[C@@H](O)C2(c3ccccc3)CC2)cc1 [Example 7, 4-(2-{(2R)-2-[(1E,3R)-3-hydroxy-3-(1-phenylcyclopropyl)prop-1-enyl]-5 oxopyrrolidin-1-yl}ethyl)benzoic acid] |  | 0.73 | 
> 10000 |  |  | CCCC1([C@H](O)C/C=C/[C@H]2[C@H](O)CC(=O)[C@@H]2CCCCCCC(=O)OC)CCC1 [Butaprost, reference compound] |  | > 30 | 
 |  |  | CCCCC[C@H](O)/C=C/[C@H]1[C@H](O)CC(=O)[C@@H]1C/C=C\CCCC(=O)O [PGE2, reference compound] |  |  | average of ova obtained (mature 10-week CD-1 mice; Group 3: 13.5 mg/kg): an average of 19.4 ova were obtained for Group 3;
0.5 |  |  | O=C(O)c1ccc(CCN2C(=O)CC[C@@H]2/C=C/[C@@H](O)Cc2cccc(Cl)c2)cc1 [Example 9, 4-(2-{(2R)-2-[(1E,3S)-3-hydroxy-4-(3-chlorophenyl)but-1-enyl]-5-oxopyrrolidin-1-yl}ethyl)benzoic acid] | 1 |  | EC50 (h-EP4 [2]; [4]): 30 nM
0.05 |  |  | O=C(O)c1ccc(CCN2C(=O)CC[C@@H]2/C=C/[C@@H](O)Cc2ccccc2)cc1 [Example 31, 4-[2-{(2R)-2-[(1E,3S)-3-hydroxy-4-phenylbut-1-enyl]-5-oxopyrrolidin-1-yl}ethyl)benzoic acid] | 1 | 0.32 | ID50 (TNFα): 0.003 mg/kg
 |  |  | O=C(O)c1ccc(CCN2C(=O)CCN2CCC(O)Cc2cccc(C(F)(F)F)c2)cc1 (centres unmarked) [4-[2-(2-{3-hydroxy-4-[3-(trifluoromethyl)phenyl]butyl}-5-oxopyrazolidin-1-yl)ethyl]benzoic acid, reference compound] |  |  | Ki (h-EP4 [1]; [7]): 23 nM; EC50 (h-EP4 [2]; read-out: EC50 measured as described in Example 84 (EP4)): 0.2 nM; ED50 (mature 10-week CD-1 mice; [8]): 5 mg/kg

Structure (SMILES) | Ki (h-EP4 [1]; Table 2, read-out: h-EP4 Ki) [nM] | Ki (h-EP2; Table 1, read-out: h-EP2 Ki) [nM] | Ki (h-EP4 [1]; Table 1, read-out: h-EP4 Ki) [nM] | ED50 (mature 10-week CD-1 mice; [5]) [mg/kg] | ED50 (mature 10-week CD-1 mice; [6]) [mg/kg] | other results
CCCCC1([C@H](O)/C=C/[C@H]2CCC(=O)N2CCc2ccc(C(=O)O)cc2)CCC1 [Example 45, 4-(2-{(2R)-2-[(1E,3R)-3-(1-butylcyclobutyl)-3-hydroxyprop-1-enyl]-5-oxopyrrolidin-1-yl}ethyl)benzoic acid] | 2 |  |  | 1 |  | EC50 (h-EP4 [2]; [4]): 0.3 nM; ID50 (TNFα): 0.010 mg/kg
